Data from patent US6875775B2, “Triphenylalkene derivatives and their use as selective estrogen receptor modulators” (Hormos Medical Oy LTD, priority 1999, dated 2005).
Like-named read-outs stand apart in the source and are kept apart here.

Legend:
MCF-7 cells = assay: cells; format: cell-based; details: for Killing of MCF-7 cells at the highest investigated concentration (in words): 10 μM, compounds with weak hormonal activity; for cytotoxicity at 10 µM / inhibition at 1 µM / Emax: Homo sapiens, MCF7, 96 h; for cytotoxicity at 10 µM: 10 μmol/l, read-out: Maximal Cell Kill (% fraction of dead cells); for inhibition at 1 µM: read-out: Antagonism at 1 μM (% of full antagonism); for Emax: maximal growth stimulus at any concentration, 4 days, read-out: Maximal Agonism (% of E2)
Description: Evaluation of Estrogenic and Antiestrogenic Properties of Compounds in MCF-7 Cell Growth Experiments in Vitro
For experiments involving hormone or anti-hormone treatment, the cells in exponential growth phase were precultivated in the absence of estradiol for one day. […] After the incubation period the medium was removed. The exposure to study drugs was started immediately by adding fresh medium with 5% stripped serum. Half of the cells were grown with estradiol, half without estradiol. Study compounds (dissolved in ethanol in 0.01 M concentration and diluted with the growth medium as appropriate) were added. The final concentrations of the compounds were 1, 10, and 100 nM, and 1 and 10 μM. The cells were incubated for four days.
This method allows evaluation of estrogenicity based on the ability of the compounds to stimulate the growth of the estrogen-dependent cells in the absence of estradiol.
Estrogenicity was estimated by comparing the maximal growth stimulus (at any concentration) of study compound as percent from growth stimulus by estradiol (100% stimulus). […] At high concentrations molecules may also show toxicity. Toxicity was estimated as the fraction of dead cells (i.e. 100% means that all cells have died during the exposure).

immature rat uterus = assay: 3 day uterotropic assay in immature female rats; details: Table 3
Description: Estimation of Estrogenicity and Antiestrogenicity in Vivo
The results have been shown in Table 3 both as per cent of estrogen stimulation (100%), and as inhibition of estrogen action (full inhibition is 100%). The values are given at two dose levels, low i.e. 3-5 mg/kg and high i.e. 10-50 mg/kg. Estrogenic activity can be estimated also after a 4 weeks' treatment of ovariectomized rats based on the uterine size.

[1] = test system: ovariectomized (OVX) rats; assay: Serum cholesterol level in ovariectomized (OVX) rats after 4 weeks dosing; format: in vivo, rat; details: for Effect on cholesterol (in words): OVX rats, Table 4; for Cholesterol level (mmol/l) in serum: OVX rat, 4 weeks dosing
Description: Estimation of Effects to Cholesterol and Bone
Compounds were given p.o. to female rats for 4 or 5 weeks daily. At the end a blood sample was taken. Serum was separated by centrifugation and frozen until analyzed for total amount of cholesterol. Bone samples were taken from vertebra and tibia. Physical strength of the bones was studied as described by Peng et al, 1994.

[2] = Overall hormonal profile summarised from Tables 2, 3 and 4
ovariectomized rats [3] = assay: Size of the uterus after 4 weeks treatment of ovariectomized rats; format: in vivo, rat
ovariectomized rats [4] = assay: Ash weight of tibial epiphyses in ovariectomized rats after 4 weeks dosing; format: in vivo, rat; details: OVX rats
Description: (§1) Compounds were given p.o. to female rats for 4 or 5 weeks daily. At the end a blood sample was taken. Serum was separated by centrifugation and frozen until analyzed for total amount of cholesterol. Bone samples were taken from vertebra and tibia. Physical strength of the bones was studied as described by Peng et al, 1994. The assessments of the bone included:
Ash Weight of Tibial Epiphyses
Epiphyses of one tibia was carefully prepared and burned. Samples were burned to remove water and organic material. Ash weight relates to the mineral content of the bone. In addition, bone samples were taken to study the histomorphometry. In some cases the bone formation was studied by injecting tetracycline (50 mg/kg i.p. 10 days before autopsy) and calcein (20 mg/kg i.p. 3 days before autopsy). The method is based on permanent binding of tetracycline into growing bone and its detection by fluorescence (Peng et al, 1994).

ovariectomized rats [5] = assay: Maximal load of femoral neck (cantilever bending test) in ovariectomized rats after 4 weeks dosing; format: in vivo, rat; details: OVX rats
Description: as §1
Mechanical Testing of Bones
The mechanical testing of bones was carried out by materials testing machine, constructed in-house at Oulu University (Technical Services Dcpartment of the Medical Faculty). The testing machine is based on lever arm principle. One end of a steel lever is fixed. The pressing rod and the driving motor are connected to the lever arm with a moment ratio of 12.5 cm/50 cm=¼. As a driving motor a linear actuator (SEY 10 Magnetic Elektromotoren AG, Switzerland) is used to obtain constant vertical movement (0.62 cm/s). The interchangeable compression head is mounted on the pressing rod for different tests transmitting compressive force to the specimen, and moving at a constant speed of 0.155 mm/s up to a maximal load capacity of 1200 N. The pressing rod is guided via an axial ball bearing to keep the movement vertical. Compressive force is measured by a temperature-compensated force sensor, which is attached to the stationary part of the compression stage. The measuring electronics include sensor calibration and adjustments.
The maximal load on the femoral neck was measured by the cantilever bending test. The supporter for the bone was a thick polymethyl methacrylate plate in which several holes of different sizes were drilled. On one side of each hole a groove was engraved for the […] trochanter of the femur. The femur was cut exactly between the middle and lower third of the shaft. The bone was inserted perpendicularly and tightly into a suitable hole on the supporter. The lesser trochanter of each bone touched the surface of the plate. This procedure allowed rapid and stable fixation of the bone without using any additional embedding materials. […]

[6] = test system: DMBA-induced rat mammary gland cancer; assay: Antitumor activity in DMBA-induced rat mammary gland cancer model; format: in vivo
Description: Estimation of Antitumor Activity in Vivo
Antitumor activity was estimated by using DMBA (dimethylbenz[a] anthracene) model. One single peroral dose of DMBA (12 mg) initiates mammary gland carcinogenesis. New compounds were administered for 5 weeks when palpable tumors appeared. Size of the tumors and number of new tumors were carefully estimated once a week until termination. The model has been described in detail by Kangas et al, 1986. The growth of the tumors was measured once a week. All tumors were classified according to their growth properties to progressing, stable and regressing ones. Disappeared tumors were separately calculated. The tumors were considered to be progressing, if the tumor volume grew more than 8-fold during the 5 weeks dosing period, and regressing if the tumor volume decreased to one fourth or less from the volume in the beginning. If tumor volume changed less or remained unchanged, the tumors were considered to be stable.

[7] = test system: intact and castrated male rats; assay: Weight of the prostate gland in intact and castrated male rats after 4 weeks daily treatment; format: in vivo, rat; details: for Weight of the prostate gland (g) mean and sd: 4 weeks daily
[8] = 15 mg/kg p.o. daily for 5 weeks

CN(C)CCOc1ccc(/C(=C(/CCCl)c2ccccc2)c2ccc(F)cc2)cc1 [No. 1, (E)-(2-{4-[4-Chloro-1-(4-fluorophenyl)-2-phenylbut-1-enyl]phenoxy}ethyl)-dimethylamine]
Killing of MCF-7 cells at the highest investigated concentration (in words) (MCF-7 cells): kill MCF-7 cells (human breast cancer cells) effectively | Estrogenic action in vitro (in words) (MCF-7 cells; in vitro, Table 2): no estrogenic action in vitro | Estrogenic action in vivo / in the uterus (in words) (immature rat uterus): weak estrogen in vivo

CN(C)CCOc1ccc(/C(=C(/CCCl)c2ccccc2)c2ccc(Cl)cc2)cc1 [No. 3, (E)-(2-{4-[4-Chloro-1-(4-chlorophenyl)-2-phenylbut-1-enyl]phenoxy}ethyl)-dimethylamine]
Killing of MCF-7 cells at the highest investigated concentration (in words) (MCF-7 cells): kill MCF-7 cells (human breast cancer cells) effectively | Effect on cholesterol (in words) [1]: decrease cholesterol | Estrogenic and antiestrogenic action (in words) [2]: weak estrogenic and no antiestrogenic action

OCCOCCOc1ccc(/C(=C(/CCCl)c2ccccc2)c2ccccc2)cc1 [No. 19, (Z)-2-{2-[4-(4-Chloro-1,2-diphenylbut-1-enyl)phenoxy]ethoxy}ethanol]
Killing of MCF-7 cells at the highest investigated concentration (in words) (MCF-7 cells): kill MCF-7 cells (human breast cancer cells) effectively | cytotoxicity at 10 µM (MCF-7 cells; With estradiol (E2)): 50% | cytotoxicity at 10 µM (MCF-7 cells; Without estradiol (E2)): 14% | inhibition at 1 µM (MCF-7 cells; With estradiol (E2)): 21% | Emax (MCF-7 cells; Without estradiol (E2)): 14% | Uterine size (ovariectomized rats [3]; 1.0 mg/kg peroral daily): 0.192 ± 0.029 g | Uterine size (ovariectomized rats [3]; 5.0 mg/kg peroral daily): 0.221 ± 0.023 g | Cholesterol level (mmol/l) in serum ([1]; 0.3 mg/kg): 3.6 ± 0.4 mmol/L | Cholesterol level (mmol/l) in serum ([1]; 10 mg/kg): 3.9 ± 0.6 mmol/L | Effect on cholesterol (in words) [1]: decrease cholesterol | Ash weight (mg) of tibial epiphyses (ovariectomized rats [4]; 1.0 mg/kg p.o.): 34.8 ± 1.3 mg | Ash weight (mg) of tibial epiphyses (ovariectomized rats [4]; 5.0 mg/kg p.o.): 34.9 ± 1.9 mg | Maximal load (N) of femoral neck (ovariectomized rats [5]; 1.0 mg/kg p.o.): 81.6 ± 7.9 N | Maximal load (N) of femoral neck (ovariectomized rats [5]; 5.0 mg/kg p.o.): 85.7 ± 17.0 N | Disappeared tumors (per cent of total tumor number) ([6]; 3 mg/kg p.o. daily for 5 weeks): 20% | Growing tumors (per cent of total tumor number) ([6]; 3 mg/kg p.o. daily for 5 weeks): 20% | Regressing tumors (per cent of total tumor number) ([6]; 3 mg/kg p.o. daily for 5 weeks): 40% | Stable tumors (per cent of total tumor number) ([6]; 3 mg/kg p.o. daily for 5 weeks): 20% | Disappeared tumors (per cent of total tumor number) [6, 8]: 14% | Growing tumors (per cent of total tumor number) [6, 8]: 14% | Regressing tumors (per cent of total tumor number) [6, 8]: 57% | Stable tumors (per cent of total tumor number) [6, 8]: 14% | Anticancer efficacy in vivo compared with tamoxifen and toremifene (in words) ([6]; DMBA-induced rat mammary tumor model, even at very low doses): more effective anticancer drug in vivo | Weight of the prostate gland (g) mean and sd ([7]; 0.5 mg/kg to castrated rats): 0.59 ± 0.07 g | Weight of the prostate gland (g) mean and sd ([7]; 0.5 mg/kg, intact male rats): 2.66 ± 0.21 g | Weight of the prostate gland (g) mean and sd ([7]; 5.0 mg/kg to castrated rats): 0.62 ± 0.07 g | Weight of the prostate gland (g) mean and sd ([7]; 5.0 mg/kg, intact male rats): 1.58 ± 0.5 g | Estrogenic action on the weight of the prostate gland (in words) ([7]; at doses which are active in DMBA-induced mammary tumor model): does not show any estrogenic action | Estrogenic and antiestrogenic action (in words) [2]: weak estrogenic and no antiestrogenic action

OCC(O)COc1ccc(/C(=C(/CCCl)c2ccccc2)c2ccccc2)cc1 (stereo not shown) [No. 20, (Z)-3-[4-(4-Chloro-1,2-diphenyl-but-1-enyl)phenoxy]propane-1,2-diol]
cytotoxicity at 10 µM (MCF-7 cells; With estradiol (E2)): 60% | cytotoxicity at 10 µM (MCF-7 cells; Without estradiol (E2)): 5% | inhibition at 1 µM (MCF-7 cells; With estradiol (E2)): 25% | Emax (MCF-7 cells; Without estradiol (E2)): 8% | Uterine size (ovariectomized rats [3]; 1.0 mg/kg peroral daily): 0.133 ± 0.032 g | Cholesterol level (mmol/l) in serum ([1]; 1 mg/kg): 3.3 ± 0.6 mmol/L | Cholesterol level (mmol/l) in serum ([1]; 5 mg/kg): 2.3 ± 0.4 mmol/L | Effect on cholesterol (in words) [1]: decrease cholesterol | Ash weight (mg) of tibial epiphyses (ovariectomized rats [4]; 3.0 mg/kg p.o.): 35.0 ± 3.2 mg | Maximal load (N) of femoral neck (ovariectomized rats [5]; 3.0 mg/kg p.o.): 81.7 ± 15.2 N | Estrogenic and antiestrogenic action (in words) [2]: weak estrogenic and no antiestrogenic action
